# Entries after “also recorded” stand apart in the source; their conditions may differ.
# Columns and labels:
# Assay type in all cases: cell-based, mouse
# WT CD8+ T cells = experiment: T-cell activation marker expression by flow cytometry after IL-2 and CD3/CD28 stimulation
# Description: (§1) Spleens from WT or Yap-cKO mice were pushed through a 70 μm mesh (Falcon) using an insulin syringe plunger and washed with PBS. Cells were treated with ACK red blood cell lysis buffer, and splenocyte single-cell suspensions were prepared for magnetic separation or stained for sorting by flow cytometry. CD4^+ or CD8^+ T-cell enrichment was performed using magnetic beads (Miltenyi Biotec or STEMCELL Technologies). Naïve CD4^+ T cells were isolated using a naïve CD4^+ T-cell isolation kit (Miltenyi Biotec).
# (§2) Isolated splenocytes or tumor digests were washed with PBS and stained with the LIVE/DEAD fixable near-IR dead cell stain kit (Invitrogen). Cells were then washed with stain buffer (BD), resuspended in stain buffer containing Fc block (BD), and incubated for 5 minutes at 4° C. Surface antibodies were added in predetermined concentrations, and cells were incubated for 30 minutes at 4° C. or 15 minutes at room temperature, before being washed with BD stain buffer and resuspended in PBS for flow cytometric analysis. For intracellular cytokine staining, cells were fixed and permeabilized using the BD Cytofix/Cytoperm Fixation/Permeabilization kit (BD) after dead cell dye and surface staining. For transcription factor staining, the eBioscience Foxp3/transcription factor staining buffer set was used. Flow cytometry analyses were performed on BD LSRII at Boston University School of Medicine Flow Cytometry Facility or at the University of Maryland School of Medicine Center for Innovative Biomedical Resources, Flow Cytometry Shared Service and analyzed by Flowlo (TreeStar).
# (§3) Cells were cultured and stimulated in 96-well plates at 1×10^5 cells per well. Plates were coated with anti-CD3 antibody (Biolegend) at concentrations of 0, 0.125, 0.25, 0.5, and 1 μg/ml at 4° C. overnight and were washed twice with PBS before incubation. Cells were stimulated in the anti-CD3-coated plates with soluble anti-CD28 at 2 μg/ml (Biolegend). On days 1 and 3, cells were stained with dead cell dye as well as antibodies recognizing the lineage and activation markers CD3 BUV737 (BD), CD4 BUV395 (BD), CD8 PerCP-Cy5.5 (Biolegend), CD69 PE (Biolegend), CD44 BV650 (Biolegend), and CD25 APC (Biolegend). For proliferation assays, CD4^+ or CD8^+ T cells were isolated and stained using the CellTrace Violet or CFSE Cell Proliferation Kit (Life Technologies). Briefly, purified cells were washed with PBS and incubated with CellTrace dye for 20 minutes at 37° C. protected from light. After 20 minutes, complete RMPI medium was added to the cell suspension, and the cells were incubated 5 minutes further before being washed and resuspended in complete RPMI medium. […] On days 1 and 3, cells were stained with dead cell dye, and proliferation was measured at the same time.
# WT CD4+ T cells = experiment: as above
# Description: as §1, §2, §3
# WT CD4+ and CD8+ T cells = experiment: T-cell proliferation assay (CellTrace Violet or CFSE); conditions: DMSO- versus verteporfin-treated, 3 days post stimulation with IL-2, anti-CD3 and anti-CD28 (FIG. 6K)
# Description: Cells were cultured and stimulated in 96-well plates at 1×10^5 cells per well. Plates were coated with anti-CD3 antibody (Biolegend) at concentrations of 0, 0.125, 0.25, 0.5, and 1 μg/ml at 4° C. overnight and were washed twice with PBS before incubation. Cells were stimulated in the anti-CD3-coated plates with soluble anti-CD28 at 2 μg/ml (Biolegend). On days 1 and 3, cells were stained with dead cell dye as well as antibodies recognizing the lineage and activation markers CD3 BUV737 (BD), CD4 BUV395 (BD), CD8 PerCP-Cy5.5 (Biolegend), CD69 PE (Biolegend), CD44 BV650 (Biolegend), and CD25 APC (Biolegend). For proliferation assays, CD4^+ or CD8^+ T cells were isolated and stained using the CellTrace Violet or CFSE Cell Proliferation Kit (Life Technologies). Briefly, purified cells were washed with PBS and incubated with CellTrace dye for 20 minutes at 37° C. protected from light. After 20 minutes, complete RMPI medium was added to the cell suspension, and the cells were incubated 5 minutes further before being washed and resuspended in complete RPMI medium. Cells were cultured in 96-well plates at 1×10^5 cells per well and were stimulated using anti-CD3/CD28 dynabeads (Gibco) at a 1:1 ratio with T cells. On days 1 and 3, cells were stained with dead cell dye, and proliferation was measured at the same time.
substance,measurement,setting,value
Verteporfin,CD69 expression on WT CD8+ T cells,"WT CD8+ T cells; 72 hours (3 days) post IL-2 and CD3/CD28 stimulation, increasing concentration of verteporfin (FIG. 6J, FIG. 11F)",increased levels of early activation markers
same,CD71 expression on WT CD8+ T cells,"WT CD8+ T cells; 72 hours post IL-2 and CD3/CD28 stimulation, increasing concentration of verteporfin (FIG. 1J)",increased levels of early activation markers CD71
same,CD69 expression on WT CD4+ T cells,"WT CD4+ T cells; 72 hours (3 days) post IL-2 and CD3/CD28 stimulation, increasing concentration of verteporfin (FIG. 6I, FIG. 11E)",increased levels of early activation markers
same,CD71 expression on WT CD4+ T cells,"WT CD4+ T cells; 72 hours post IL-2 and CD3/CD28 stimulation, increasing concentration of verteporfin (FIG. 1I)",increased levels of early activation markers CD71
same,Proliferation of T cells isolated from WT mice,WT CD4+ and CD8+ T cells,did not significantly affect proliferation; also recorded: neither Yap deletion nor verteporfin treatment significantly impacted T-cell proliferation
